This is an account of results in US5861476A, “Peptides and compounds that bind to the IL-1 receptor” (Affymax Technologies N.V., priority 1995, dated 1999).

One assay addresses T1, IL-1RtI (Homo sapiens, UniProt P14778).
T1 construct: made in house; host or cells: recombinant host cells (one form soluble from baculovirus transformed host cells; another PIG-tailed and cleaved from the cell surface)
T1 sequence (P14778 18-336): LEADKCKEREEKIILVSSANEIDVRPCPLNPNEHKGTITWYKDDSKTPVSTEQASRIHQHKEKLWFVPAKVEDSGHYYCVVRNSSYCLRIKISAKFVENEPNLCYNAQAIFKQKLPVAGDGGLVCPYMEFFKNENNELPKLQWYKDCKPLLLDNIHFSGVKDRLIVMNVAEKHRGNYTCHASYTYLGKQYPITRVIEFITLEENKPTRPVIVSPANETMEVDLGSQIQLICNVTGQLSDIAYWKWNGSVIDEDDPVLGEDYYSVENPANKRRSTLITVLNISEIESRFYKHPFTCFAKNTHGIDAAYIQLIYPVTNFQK
Description: Inhibition of 125I-IL-1α binding to IL-1RtI (Example 3). Particulars: inhibition of 125I-IL-1α binding to IL-1RtI; soluble peptide unless marked *. The gist of the method:
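Competition with 90 pM 125I-IL-1α was run in duplicate for 2 h at 4 °C in HEPES-buffered RPMI with 1% BSA, pH 7.2-7.3, against either antibody-captured truncated receptor or cells with full-length IL-1RtI. Gamma counting of NaOH-detached material gave approximate IC50; high-affinity peptides used 24-well format.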

The target of assay [1] is T2, IL-1 induced down-regulation of the epidermal growth factor (EGF) receptor in normal human dermal fibroblasts (NHDF) (Homo sapiens, UniProt P14778).
T2 sequence (P14778 18-569): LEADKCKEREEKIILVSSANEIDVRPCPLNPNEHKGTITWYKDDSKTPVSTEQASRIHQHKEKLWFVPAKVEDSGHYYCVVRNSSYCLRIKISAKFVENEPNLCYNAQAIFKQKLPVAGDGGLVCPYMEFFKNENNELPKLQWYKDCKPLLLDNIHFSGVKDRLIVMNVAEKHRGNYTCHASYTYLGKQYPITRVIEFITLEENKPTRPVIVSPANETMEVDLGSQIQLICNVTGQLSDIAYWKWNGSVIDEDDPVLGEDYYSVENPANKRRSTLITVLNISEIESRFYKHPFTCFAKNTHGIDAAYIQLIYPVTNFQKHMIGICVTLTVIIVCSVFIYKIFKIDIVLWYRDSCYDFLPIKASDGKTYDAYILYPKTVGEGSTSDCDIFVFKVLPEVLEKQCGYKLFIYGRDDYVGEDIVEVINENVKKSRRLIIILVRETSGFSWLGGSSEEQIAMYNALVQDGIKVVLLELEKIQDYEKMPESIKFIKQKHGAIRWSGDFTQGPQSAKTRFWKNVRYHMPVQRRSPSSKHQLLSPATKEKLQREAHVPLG
The experiment in a line: Epidermal Growth Factor Receptor Down Regulation Assay. The class given is cell-based. Particulars: 37° C., in the presence of IL-1α, 125I-labeled EGF binding, read-out: IC50 (approximate concentration which blocked 50% of the IL-1 induced down regulation of the EGF receptor). From the text: The protocol set forth in Bird and Saklatvala (1989) J. Immunol. […] This assay examines the effect of the compounds of the invention on the IL-1 induced down-regulation of the epidermal growth factor (EGF) receptor as measured by the binding of ^125 I-labeled EGF to its receptor in normal human dermal fibroblasts (NHDF). […] The table below lists the approximate concentration of representative peptides of the invention which blocked 50% of the IL-1 induced down regulation of the EGF receptor. IC50 values are indicated symbolically by the symbols "-", "+", and "++". […] Those peptides which give IC50 values of less than or equal to 100 μM are given a "+", while those which give IC50 values of 500 nM or less are indicated with a "++". Those peptides which give IC50 values at or near the cutoff point for a particular symbol are indicated with a hybrid, e.g. "±". Those peptides for which IC50 values were not determined are listed as "N.D".

The target in assay [2] is T3, IL-1 induced E-selectin in HUVEC cells (Homo sapiens, UniProt P14778).
T3 sequence (P14778 18-569): T2 sequence (P14778 18-569)
The experiment in a line: Peptide Effects on IL-1 Induced E-Selectin (HUVEC Cells). The class given is cell-based. Particulars: 120 pM IL-1α, read-out: IC50 (concentration required to inhibit 50% of IL-1 induced E-selectin expression). The procedure: The compounds of the present invention were assayed for their ability to inhibit the expression of IL-1 induced E-selectin in HUVEC cells (human umbilical vein endothelial cells). HUVEC cells are grown to confluency in the wells of a 24-well microtiter plate. The compounds were serially diluted in DMEM/F12+0.1% BSA ("SFM"with 120 pM IL-1α. The cells were washed and then incubated with IL-1α and the compound to be tested for 15 minutes. The cells were again washed and incubated in SFM for 4 hours. The cells were washed and incubated with anti-selectin antibody for 30 minutes. Following antibody incubation, the cells were incubated with ^125 I Protein A and washed. The amount of ^125 I bound to the cells was then determined. The concentration of compounds required to inhibit 50% of IL-1 induced E-selectin expression is shown below.

Where a SMILES comes first, the peptide text is derived from it. Where no end group is shown, it is not given here. [ ]: non-standard residue; d: D form. Aze = O=C(O)[C@@H]1CCN1

Consider `CC(=O)N[C@@H](Cc1ccccc1)C(=O)N[C@@H](CCC(=O)O)C(=O)N[C@@H](Cc1c[nH]c2ccccc12)C(=O)N[C@H](C(=O)N1CCC[C@H]1C(=O)NCC(=O)N[C@@H](Cc1ccc(O)cc1)C(=O)N[C@@H](Cc1c[nH]c2ccccc12)C(=O)N[C@@H](CCC(N)=O)C(=O)N1CC[C@H]1C(=O)N[C@@H](Cc1ccc(O)cc1)C(N)=O)[C@@H](C)O` [AcFEWTPGYWQJY--NH2] (Ac-FEWTPGYWQ[Aze]Y-NH2), for which the IC50 was ≤ 500 nM at IL-1RtI, ≤ 100000 nM in assay [1] and ≤ 500 nM in assay [2].

Take TANVSSFEWTPGYWQPYALPL: the IC50 (at IL-1RtI; in assay [1]; in assay [2]) was ≤ 500 nM in each case.

As to `CC(=O)N[C@@H](Cc1ccccc1)C(=O)N[C@@H](CCC(=O)O)C(=O)N[C@@H](Cc1c[nH]c2ccccc12)C(=O)N[C@H](C(=O)N1CCC[C@H]1C(=O)NCC(=O)N[C@@H](Cc1c[nH]c2ccccc12)C(=O)N[C@@H](Cc1ccc(O)cc1)C(=O)N[C@@H](CCC(N)=O)C(=O)N1CC[C@H]1C(=O)N[C@@H](Cc1ccc(O)cc1)C(N)=O)[C@@H](C)O` [AcFEWTPGWYQJY--NH2] (Ac-FEWTPGWYQ[Aze]Y-NH2), the IC50 at IL-1RtI is ≤ 500 nM; in assay [1] it was 500 nM; in assay [2] it was ≤ 500 nM.
